In the supplement of paper PMC10307832:

Key:
Assay in all cases: relative viability (nuclei count vs DMSO), 5 days (fraction); higher = more cells survive
[1] = compound: CC1CC(=O)N(C2=CN=C(N=C2N1C3CCCC3)NC4=C(C=C(C=C4)C(=O)NC5CCN(CC5)C)OC)C [NPK76-II-72-1] + CC(=O)c1c(C)c2cnc(Nc3ccc(N4CCNCC4)cn3)nc2n(C2CCCC2)c1=O [Palbociclib] (partner 0.5 µM)
Outline: (§1)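 Lung cancer cell lines in 1536-well plates got either a single drug or a fixed anchor-drug dose together with five library-drug doses (not always all listed) in √10 steps, by pin tool, on the day after seeding. Nuclei were counted after 5 days, and relative viability is the treated-to-vehicle ratio of nuclei counts. Values are medians of duplicate plates.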

BI-2536 + Palbociclib = compound: CC[C@@H]1C(=O)N(C)c2cnc(Nc3ccc(C(=O)NC4CCN(C)CC4)cc3OC)nc2N1C1CCCC1 [BI-2536] + CC(=O)c1c(C)c2cnc(Nc3ccc(N4CCNCC4)cn3)nc2n(C2CCCC2)c1=O [Palbociclib] (partner 0.5 µM)
Outline: as §1

[2] = compound: CC1CC(=O)N(C2=CN=C(N=C2N1C3CCCC3)NC4=C(C=C(C=C4)C(=O)NC5CCN(CC5)C)OC)C [NPK76-II-72-1] + CCNC(=O)c1noc(-c2cc(C(C)C)c(O)cc2O)c1-c1ccc(CN2CCOCC2)cc1 [Luminespib] (partner 0.01 µM)
Outline: as §1

NPK76-II-72-1 + AZD7762 = compound: CC1CC(=O)N(C2=CN=C(N=C2N1C3CCCC3)NC4=C(C=C(C=C4)C(=O)NC5CCN(CC5)C)OC)C [NPK76-II-72-1] + NC(=O)Nc1cc(-c2cccc(F)c2)sc1C(=O)N[C@H]1CCCNC1 [AZD7762] (partner 0.2 µM)
Outline: as §1

Cell Line	relative viability ([1]; first compound 0.01 µM)	relative viability ([1]; first compound 0.03162 µM)	relative viability ([1]; first compound 0.1 µM)	relative viability ([1]; first compound 0.3162 µM)	relative viability ([1]; first compound 1 µM)	relative viability (BI-2536 + Palbociclib; first compound 0.01 µM)	relative viability (BI-2536 + Palbociclib; first compound 0.03162 µM)	relative viability (BI-2536 + Palbociclib; first compound 0.1 µM)	relative viability (BI-2536 + Palbociclib; first compound 0.3162 µM)	relative viability (BI-2536 + Palbociclib; first compound 1 µM)	relative viability ([2]; first compound 0.01 µM)	relative viability ([2]; first compound 0.03162 µM)	relative viability ([2]; first compound 0.1 µM)	relative viability ([2]; first compound 0.3162 µM)	relative viability ([2]; first compound 1 µM)	relative viability (NPK76-II-72-1 + AZD7762; first compound 0.01 µM)	relative viability (NPK76-II-72-1 + AZD7762; first compound 0.03162 µM)	relative viability (NPK76-II-72-1 + AZD7762; first compound 0.1 µM)	relative viability (NPK76-II-72-1 + AZD7762; first compound 0.3162 µM)	relative viability (NPK76-II-72-1 + AZD7762; first compound 1 µM)
NCI-H1915	0.508	0.606	0.529	0.502	0.536	0.424	0.546	0.426	0.0999	0.0968	0.762	0.798	0.75	0.7	0.845	0.709	0.751	0.665	0.647	0.726
NCI-H322M	0.485	0.492	0.48	0.482	0.47	0.503	0.436	0.462	0.447	0.395	0.818	0.826	0.943	0.783	1.01	0.532	0.504	0.52	0.655	0.52
NCI-H522	0.866	1.02	0.981	–	1.1	1	0.922	1.13	0.4	0.303	1.05	1.1	1.42	1.14	1.27	0.945	0.826	0.786	–	0.809
NCI-H647	0.31	0.351	0.424	0.362	0.506	0.265	0.473	0.266	0.0799	0.06	0.189	0.188	0.143	0.202	0.23	0.4	0.476	0.578	0.434	0.379
NCI-H2170	0.395	0.358	0.435	0.285	0.415	0.379	0.437	0.363	0.155	0.16	0.63	0.403	0.586	0.548	0.61	0.799	0.891	0.892	0.358	0.975
NCI-H2085	0.475	0.445	0.464	0.489	0.491	0.489	0.446	0.409	0.287	0.301	0.442	0.437	0.391	0.381	0.437	0.923	1.02	0.891	1	1.16
NCI-H727	0.705	0.671	0.594	0.621	0.712	0.708	0.613	0.701	0.615	0.437	0.29	0.31	0.288	0.246	0.412	0.466	0.67	0.545	0.537	0.558
NCI-H441	0.232	0.26	0.251	0.205	0.254	0.201	0.203	0.183	0.132	0.122	0.35	0.348	0.299	0.425	0.536	1.12	1.07	1.08	1.04	1.07
LOU-NH91	0.538	0.52	0.496	0.52	0.528	0.477	0.51	0.472	0.331	0.317	0.305	0.324	0.347	0.33	0.345	0.728	0.744	0.723	0.675	0.798
NCI-H3122	0.183	0.18	0.179	0.194	0.213	0.191	0.175	0.171	0.132	0.159	0.095	0.101	0.113	0.0814	0.079	0.88	1	1.03	0.996	0.973
NCI-H460	0.157	0.105	0.225	0.121	0.219	0.264	0.15	0.14	0.0134	0.0152	0.0406	0.0404	0.0346	0.0272	0.0329	0.631	0.652	0.666	0.555	0.75
NCI-H650	0.332	0.366	0.3	0.303	0.356	0.315	0.274	0.294	0.187	0.138	0.72	0.843	0.718	0.615	0.891	1.13	0.997	0.97	0.896	0.995
NCI-H1793	–	0.324	0.352	0.256	0.366	0.328	0.34	0.276	0.168	0.154	0.144	0.166	0.203	0.176	0.201	–	0.69	0.618	0.238	0.566
NCI-H1734	0.328	0.348	0.345	0.321	0.384	0.358	0.349	0.256	0.203	0.192	0.167	0.178	0.189	0.17	0.186	0.531	0.557	0.676	0.532	0.667
LXF-289	0.594	0.58	0.562	0.577	0.633	0.612	0.583	0.587	0.116	0.116	0.614	0.761	0.675	0.694	0.688	1.07	1.12	0.992	1.1	1.08
H3255	0.351	0.319	0.305	0.3	0.304	0.341	0.299	0.314	0.248	0.259	0.871	0.76	0.55	0.675	0.891	0.841	0.815	0.959	0.655	0.988
